Source: ChEMBL document CHEMBL3351699, “Diarylthiazole: an antimycobacterial scaffold potentially targeting PrrB-PrrA two-component system” (J Med Chem, 2014)
≈ marks a conversion by molar mass, not a printed value.

How the values were obtained:
[1] = test system: Mycobacterium tuberculosis; assay: Antimicrobial activity against Mycobacterium tuberculosis H37Rv ATCC 27294 assessed as growth inhibition after 5 days by microdilution method; type: functional; settings: H37Rv ATCC 27294, 120 h
[2] = Solubility of the compound; type: physicochemical
[3] = test system: Mycobacterium tuberculosis; assay: Antimicrobial activity against clinical isolate Mycobacterium tuberculosis Harlingen assessed as growth inhibition after 7 days by turbidometry; type: functional; settings: 168 h
[4] = test system: Mycobacterium tuberculosis; assay: Antimicrobial activity against clinical isolate Mycobacterium tuberculosis DKU220 assessed as growth inhibition after 7 days by turbidometry; type: functional; settings: DKU220, 168 h
[5] = test system: Mycobacterium tuberculosis; assay: Antimicrobial activity against clinical isolate Mycobacterium tuberculosis DKU97A assessed as growth inhibition after 7 days by turbidometry; type: functional; settings: 168 h
[6] = test system: Mycobacterium tuberculosis; assay: Antimicrobial activity against clinical isolate Mycobacterium tuberculosis H37Rv ATCC 27294 assessed as growth inhibition after 7 days by turbidometry; type: functional; settings: H37Rv ATCC 27294, 168 h
[7] = test system: Mycobacterium tuberculosis; assay: Antimicrobial activity against clinical isolate Mycobacterium tuberculosis DKU76 assessed as growth inhibition after 7 days by turbidometry; type: functional; settings: DKU76, 168 h
[8] = test system: Mycobacterium tuberculosis; assay: Antimicrobial activity against clinical isolate Mycobacterium tuberculosis ATCC35811 assessed as growth inhibition after 7 days by turbidometry; type: functional; settings: ATCC35811, 168 h
[9] = test system: Mycobacterium tuberculosis; assay: Antimicrobial activity against clinical isolate Mycobacterium tuberculosis Beijing assessed as growth inhibition after 7 days by turbidometry; type: functional; settings: 168 h
[10] = test system: Mycobacterium tuberculosis; assay: Antimicrobial activity against clinical isolate Mycobacterium tuberculosis Erdman assessed as growth inhibition after 7 days by turbidometry; type: functional; settings: 168 h
[11] = test system: Mycobacterium tuberculosis; assay: Antimicrobial activity against clinical isolate Mycobacterium tuberculosis DKU211 assessed as growth inhibition after 7 days by turbidometry; type: functional; settings: DKU211, 168 h
[12] = test system: Mycobacterium tuberculosis; assay: Antimicrobial activity against clinical isolate Mycobacterium tuberculosis ATCC25618 assessed as growth inhibition after 7 days by turbidometry; type: functional; settings: ATCC25618, 168 h
[13] = test system: Mycobacterium tuberculosis; assay: Antimicrobial activity against clinical isolate Mycobacterium tuberculosis JAL assessed as growth inhibition after 7 days by turbidometry; type: functional; settings: 168 h
[14] = test system: Mycobacterium tuberculosis; assay: Bactericidal activity against Mycobacterium tuberculosis H37Rv ATCC 27294 after 5 days by microdilution method; type: functional; settings: H37Rv ATCC 27294, 120 h
[15] = test system: Mycobacterium tuberculosis; assay: Ratio of MBC for Mycobacterium tuberculosis H37Rv ATCC 27294 to MIC for Mycobacterium tuberculosis H37Rv ATCC 27294; type: functional
[16] = Intrinsic clearance in mouse liver microsomes; type: ADME; settings: read-out: CLH
[17] = Unbound fraction in mouse plasma; type: ADME, cell-free
[18] = Intrinsic clearance in human liver microsomes; type: ADME; settings: read-out: CLH

Structure (SMILES): CCCc1cc(-c2nc(-c3ccccc3C(F)(F)F)cs2)ccn1
- MIC80 [1]: > 32 µg/mL

Structure (SMILES): CN1CCC(c2nc(-c3ccc(Cl)cc3)cs2)CC1
- MIC80 [1]: > 32 µg/mL

Structure (SMILES): CCCc1cc(-c2nc(-c3ccc(C)cc3)cs2)ccn1 [FATOSTATIN]
- MIC80 [1]: 1 µg/mL (≈ 3.4 µM)
- solubility [2]: 0.4 µM (≈ 0.118 µg/mL)

Structure (SMILES): CCCc1cc(-c2nc(-c3ccc(C(F)(F)F)cc3)cs2)ccn1
- MIC80 [1]: 1 µg/mL (≈ 2.87 µM)

Structure (SMILES): CCCc1cc(-c2nc(-c3ccc(Cl)cc3)c(C)s2)ccn1
- MIC80 [1]: 4 µg/mL (≈ 12.2 µM)

Structure (SMILES): CCCc1cc(-c2nc(-c3ccc(Cl)cc3)c(C(=O)O)s2)ccn1
- MIC80 [1]: > 32 µg/mL

Structure (SMILES): CCCc1cc(-c2nc(-c3ccccn3)cs2)ccn1
- MIC80 [1]: 4 µg/mL (≈ 14.2 µM)

Structure (SMILES): CCCc1cc(-c2nsc(-c3ccnc(CCC)c3)n2)ccn1
- MIC80 [1]: 32 µg/mL (≈ 98.6 µM)

Structure (SMILES): CCCc1cc(-c2nc(-c3cccc(OC)c3)cs2)ccn1
- MIC80 [3]: 0.13 µg/mL (≈ 0.419 µM)
- MIC80 [1]: 0.5 µg/mL (≈ 1.61 µM)
- MIC80 [4]: 1 µg/mL (≈ 3.22 µM)
- MIC80 [5]: 0.5 µg/mL (≈ 1.61 µM)
- MIC80 [6]: 0.25 µg/mL (≈ 0.805 µM)
- MIC80 [7]: 1 µg/mL (≈ 3.22 µM)
- MIC80 [8]: 0.5 µg/mL (≈ 1.61 µM)
- MIC80 [9]: 0.13 µg/mL (≈ 0.419 µM)
- MIC80 [10]: 0.25 µg/mL (≈ 0.805 µM)
- MIC80 [11]: 1 µg/mL (≈ 3.22 µM)
- MIC80 [12]: 0.25 µg/mL (≈ 0.805 µM)
- MIC80 [13]: 0.5 µg/mL (≈ 1.61 µM)

Structure (SMILES): CCCc1cc(-c2nc(-c3ccc(C(=O)NS(C)(=O)=O)cc3)cs2)ccn1
- MIC80 [1]: 32 µg/mL (≈ 79.7 µM)

Structure (SMILES): CCCc1cc(-c2nc(-c3ccc(OCCN4CCOCC4)cc3)cs2)ccn1
- MIC80 [3]: 0.5 µg/mL (≈ 1.22 µM)
- MIC80 [1]: 1 µg/mL (≈ 2.44 µM)
- MIC80 [4]: 2 µg/mL (≈ 4.88 µM)
- MIC80 [5]: 1 µg/mL (≈ 2.44 µM)
- MIC80 [6]: 2 µg/mL (≈ 4.88 µM)
- MIC80 [7]: 1 µg/mL (≈ 2.44 µM)
- MIC80 [8]: 1 µg/mL (≈ 2.44 µM)
- MBC [14]: 5.2 µg/mL (≈ 12.7 µM)
- MIC80 [9]: 1 µg/mL (≈ 2.44 µM)
- MIC80 [10]: 1 µg/mL (≈ 2.44 µM)
- MIC80 [11]: 1 µg/mL (≈ 2.44 µM)
- MIC80 [12]: 2 µg/mL (≈ 4.88 µM)
- MIC80 [13]: 1 µg/mL (≈ 2.44 µM)
- solubility [2]: 29.8 µM (≈ 12.2 µg/mL)
- Ratio [15]: 2

Structure (SMILES): CCCc1cc(-c2nc(-c3ccc(NS(C)(=O)=O)cc3)cs2)ccn1
- MIC80 [3]: 0.13 µg/mL (≈ 0.348 µM)
- microsomal CLint [16]: 28.8 µL/min/mg
- MIC80 [1]: 0.4 µg/mL (≈ 1.07 µM)
- MIC80 [4]: 0.5 µg/mL (≈ 1.34 µM)
- MIC80 [5]: 0.5 µg/mL (≈ 1.34 µM)
- MIC80 [6]: 0.25 µg/mL (≈ 0.669 µM)
- MIC80 [7]: 1 µg/mL (≈ 2.68 µM)
- fraction unbound [17]: < 0.01
- MIC80 [8]: 0.5 µg/mL (≈ 1.34 µM)
- microsomal CLint [18]: 4.3 µL/min/mg
- MIC80 [9]: 0.13 µg/mL (≈ 0.348 µM)
- MIC80 [10]: 0.13 µg/mL (≈ 0.348 µM)
- MIC80 [11]: 0.5 µg/mL (≈ 1.34 µM)
- MIC80 [12]: 0.13 µg/mL (≈ 0.348 µM)
- MIC80 [13]: 0.25 µg/mL (≈ 0.669 µM)
- solubility [2]: 1.3 µM (≈ 0.486 µg/mL)

Structure (SMILES): CC(=O)N1CCC(c2nc(-c3ccc(Cl)cc3)cs2)CC1
- MIC80 [1]: > 32 µg/mL

Structure (SMILES): CCCc1cc(-c2nc(-c3ccc(NC(=O)NCC)cc3)cs2)ccn1
- MIC80 [1]: 1 µg/mL (≈ 2.73 µM)

Structure (SMILES): CCc1cc(-c2ncc(-c3ccnc(OC)c3)s2)ccn1
- MBC [14]: 0.5 µg/mL (≈ 1.68 µM)

Structure (SMILES): CCCc1cc(-c2ncc(-c3ccnc(OC)c3)s2)ccn1
- MIC80 [1]: 32 µg/mL (≈ 103 µM)

Structure (SMILES): CCCc1cc(-c2nc(-c3ccccc3OC)cs2)ccn1
- MIC80 [1]: 1 µg/mL (≈ 3.22 µM)

Structure (SMILES): CCCc1cc(-c2nc(-c3cccc(C(F)(F)F)c3)cs2)ccn1
- MIC80 [1]: 0.5 µg/mL (≈ 1.44 µM)

Structure (SMILES): O=c1cc(-c2nc(-c3ccc(Cl)cc3)cs2)cc[nH]1
- MIC80 [1]: > 32 µg/mL

Structure (SMILES): CCCc1cc(-c2nc(-c3ccnc(OCC)c3)cs2)ccn1
- MIC80 [1]: 0.1 µg/mL (≈ 0.307 µM)
- MBC [14]: 0.1 µg/mL (≈ 0.307 µM)

Structure (SMILES): CCCc1cc(-c2nc(-c3cncnc3)cs2)ccn1
- MIC80 [1]: 4 µg/mL (≈ 14.2 µM)

Structure (SMILES): CCCc1cc(-c2nc(-c3cccnc3)cs2)ccn1
- MIC80 [1]: 1.6 µg/mL (≈ 5.69 µM)

Structure (SMILES): CCCc1cc(-c2nc(-c3ccc(Cl)cc3)cs2)ccn1
- MIC80 [1]: 1 µg/mL (≈ 3.18 µM)
- MBC [14]: 2 µg/mL (≈ 6.35 µM)

Structure (SMILES): CCCc1cc(-c2nc(-c3ccc(F)cc3)cs2)ccn1
- MIC80 [1]: 1 µg/mL (≈ 3.35 µM)
